{"source": "patent US10080807B2", "about": "(LIPOMEDIX PHARMACEUTICALS LTD., priority 2014, dated 2018)", "key": {"[1]": {"tested_on": "subcutaneous 4T1 breast mouse tumor model", "settings": "day 5 iv; mitomycin C 6 mg/kg; prodrug 40 mg/kg; combination prodrug 30 mg/kg + liposome-entrapped doxorubicin 8 mg/kg; median tumor size", "text": "A subcutaneous 4T1 breast mouse tumor model was selected, and established by inoculating tumor cells subcutaneously into BALB/c f mice. The day of sc injection with tumor cells was defined as study day zero."}, "[2]": {"tested_on": "N87 human gastric tumor model", "settings": "N87 in footpad of nude mice; mitomycin C 5 mg/kg iv or prodrug 35 mg/kg iv days 6, 13; paclitaxel 15 mg/kg ip days 6, 10, 13, 17; mice with unacceptable toxicity removed", "experimental": "An N87 human gastric tumor model was selected, and established by inoculating N87 tumor cells into the footpad of nude mice via subcutaneous (sc) injection. The day of sc injection with tumor cells was defined as study day zero.\nThe tumor size of the animals in each treatment group was measured."}, "[3]": {"tested_on": "C26 (colon carcinoma) mouse tumor model", "test": "Anti-tumor effect in colon carcinoma tumor model (Example 6)", "format": "in vivo", "settings": "C26 ip in BALB/c mice; gemcitabine 100 mg/kg ip or paclitaxel 15 mg/kg ip days 5, 8, 12, 15, alone or with prodrug 30 mg/kg iv; 45 days", "source_text": "C26 (colon carcinoma) mouse tumor model was used by injecting BALB/c F intraperitoneally with 1 million tumor cells."}, "[4]": {"tested_on": "N87 human gastric tumor model", "test": "Anti-tumor effect in gastric tumor model (Example 7)", "format": "in vivo", "text": "An N87 human gastric tumor model was selected, and established by inoculating 10^6 N87 tumor cells into the footpad of nude mice via subcutaneous (sc) injection. The day of sc injection with tumor cells was defined as study day zero."}, "[5]": {"tested_on": "human A375 melanoma subcutaneous tumor model", "settings": "prodrug 25 mg/kg iv days 11, 18; paclitaxel 15 mg/kg ip days 11, 14, 18, 21; alone or combined", "experimental": "A human A375 melanoma subcutaneous tumor model was selected, and established by inoculating tumor cells into nude mice via subcutaneous (sc) injection. The day of sc injection with tumor cells was defined as study day zero.\nThe tumor size of the animals (n=6) in each treatment group was measured, and the median tumor size (in mm) is shown in FIG. 6 as a function of days post tumor inoculation."}}}
{"smiles": "CO[C@@]12[C@H](COC(N)=O)C3=C(C(=O)C(C)=C(N)C3=O)N1C[C@@H]1N[C@@H]12", "note": "[mitomycin C]", "values": [{"measurement": "tumor growth (in words)", "setting": "[1]", "value": "continued growth in tumor size"}, {"measurement": "tumor size (in words)", "setting": "[2]", "value": "continuous increase in tumor size"}]}
{"smiles": "Nc1ccn([C@@H]2O[C@H](CO)[C@@H](O)C2(F)F)c(=O)n1", "note": "[gemcitabine, 2′-deoxy-2′,2′-difluoro-cytidine]", "values": [{"measurement": "survival (in words)", "setting": "[3]", "value": "fared poorly, with nearly all animals failing to survive the study period"}]}
{"smiles": "CC(=O)O[C@H]1C(=O)[C@@]2(C)[C@H]([C@H](OC(=O)c3ccccc3)[C@]3(O)C[C@H](OC(=O)[C@H](O)[C@@H](NC(=O)c4ccccc4)c4ccccc4)C(C)=C1C3(C)C)[C@]1(OC(C)=O)CO[C@@H]1C[C@@H]2O", "note": "[paclitaxel]", "values": [{"measurement": "animals tumor free at observation day 50", "setting": "[4]; N87 in footpad of nude mice, prodrug 25 mg/kg iv days 5, 12, paclitaxel 15 mg/kg ip days 5, 8, 12, 15", "value": "two of eight animals"}, {"measurement": "reduction in tumor volume", "setting": "[4]; individual tumor volumes measured to 48 days post inoculation (FIGS. 5C-5H)", "value": "Reduction in tumor volume was not observed"}, {"measurement": "tumor size (in words)", "setting": "[2]", "value": "continuous increase in tumor size"}, {"measurement": "tumor growth (in words)", "setting": "[5]", "value": "either a shorter plateau period of attenuated tumor growth or an increase in tumor growth sooner than animals treated with the combination therapy"}, {"measurement": "survival (in words)", "setting": "[3]", "value": "fared poorly, with nearly all animals failing to survive the study period"}]}
